Data from patent US5270302A, “Derivatives of tetrapeptides as CCK agonists” (priority 1991, dated 1993).
*1 amine or outer side, *2 acyl side, *3 side chain or, on linkers, in order; H or OH if unused. Where a SMILES comes first, the peptide text is derived from it. Side-chain parts run from the residue outwards. [ ]: non-standard residue; d: D form. The star is where a group is joined. 2Naphthoyl(6-OH) = O=C(c1ccc2cc(O)ccc2c1)*; Desaminotyrosyl = O=C(CCc1ccc(O)cc1)*; NMeF = CN[C@@H](Cc1ccccc1)C(=O)O; X11 = O=C(C=Cc1ccc(Cl)c(Cl)c1)*; NMeD = CN[C@@H](CC(=O)O)C(=O)O; NH(2-Me-phenyl) = Cc1ccccc1N*; X18 = O=C(/C=C/c1ccc(Cl)cc1)*; X14 = O=[N+]([O-])c1ccccc1N*; X8 = O=C(C=Cc1ccc(O)c(O)c1)*; X7 = Cc1ccc(/C=C/C(=O)*)cc1; X13 = O=C(C=Cc1ccc(F)cc1)*; X21 = O=C(C=Cc1cccc(O)c1)*; X1 = O=C(C=Cc1ccc(O)cc1)*; 2Abz = Nc1ccccc1C(=O)O; Boc = CC(C)(C)OC(=O)*; X24 = CC(C)c1ccccc1N*; CO = O=C([*:1])[*:2]; NHPh = c1ccc(N*)cc1; NHtBu = CC(C)(C)N*; X16 = COc1ccccc1N*; X19 = Brc1ccccc1N*

target: T1, Type-A CCK receptor (Cavia porcellus, UniProt Q63931); test: Radioligand binding of [125I]BH-CCK-8 in guinea pig pancreatic membrane preparations; settings: not given
T1 construct: Cortical and pancreatic membranes were prepared as described; from tissue; host or cells: guinea pig pancreas membranes
T1 sequence (Q63931 1-430): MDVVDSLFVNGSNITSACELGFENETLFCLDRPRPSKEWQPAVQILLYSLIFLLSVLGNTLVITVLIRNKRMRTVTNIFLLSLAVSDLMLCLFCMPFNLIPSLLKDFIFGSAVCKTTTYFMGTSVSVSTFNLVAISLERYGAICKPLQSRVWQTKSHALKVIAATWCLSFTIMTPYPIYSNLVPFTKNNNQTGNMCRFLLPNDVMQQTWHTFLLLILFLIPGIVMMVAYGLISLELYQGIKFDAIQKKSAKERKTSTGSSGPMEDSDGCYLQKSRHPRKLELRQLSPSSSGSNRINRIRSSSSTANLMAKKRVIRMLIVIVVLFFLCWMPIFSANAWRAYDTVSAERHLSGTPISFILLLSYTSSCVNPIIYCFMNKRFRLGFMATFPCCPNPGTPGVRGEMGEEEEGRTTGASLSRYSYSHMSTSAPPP
Description: (§1) CCK-8 [Asp-Tyr(SO3 H)-Met-Gly-Trp-Met-Asp-PheNH2 ], bestatin and phosphoramidion were purchased from Peptide International (Louisville, Ky.). EGTA (ethylene glycol-bis-(β-aminoethyl) N,N,N',N'-tetraacetic acid), HEPES (4-(2-hydroxyethyl)-1-piperazine-enthanesulfonic acid) and BSA (bovine serum albumin) were purchased from Sigma Chemical Co. (St. Louis, Mo.). [^125 I]-Bolton-Hunteer (BH-CCK-8) (specific activity, 2200 Ci/mmol) was obtained from New England Nuclear (Boston, Mass.). Male guinea pigs, 250 to 325 g, were obtained from Scientific Small Animal Laboratory and Farm (Arlington Heights, Ill.). Collagenase, code CLSPA was purchased from Worthington (Frehold, N.J.).
(§2) Protocol For Radioligand Binding Experiments in Guinea Pig Cerebral Cortical and Pancreatic Membrane Preparations
(§3) Cortical and pancreatic membranes were prepared as described (Lin and Miller; J. Pharmacol. Exp. Ther. 1985, 232:775-780,). In brief, cortex and pancreas were removed and rinsed with ice-cold saline. Visible fat and connective tissues were removed from the pancreas. […] The homogenates were entrifuged for 10 minutes at 1075×g and pellets were discarded. The supernatants were saved and centrifuged at 38,730×g for 20 minutes. The resultant pellets were rehomogenized in 25 mL of 50 mM Tris-HCl buffer with a Teflon-glass homogenizer, 5 up and down strokes. The homogenates were centrifuged again at 38,730×g for 20 minutes. Pellets werre then resuspended in 20 mM HEPES, containing 1 mM EGTA, 118 mM NaCl, 4.7 mM KCl, 5 mM MgCl2, 100 μM bestatin, 3 μM phosphoramidon, pH 7.4 at 22° C. with a Teflon-glass homogenizer, 15 up and down strokes. Resuspension volume for the cortex was 15-18 mL per gram of original wet weight and 60 mL per gram for the pancreas.
(§4) [^125 I]Bolton-Hunter CCK-8 and test compounds were diluted with HEPES-EGTA-salt buffer (see above) containing 0.5% BSA. To 1 mL Skatron polystyrene tubes were added 25 μL of test compounds, 25 μL of [^125 I]BH-CCK-8 and 200 μL of membrane suspension. The final BSA concentration was 0.1%. The cortical tissues were incubated at 30° C. for 150 minutes and pancreatic tissues were incubated at 37° C. for 150 min. Incubations were terminated by filtration using Skatron Cell Harvester and SS32 microfiber filter mats. […] IC50 s were determined from the Hill analysis.

Structure (SMILES)	IC50
CC(C)(C)OC(=O)N[C@@H](Cc1c[nH]c2ccccc12)C(=O)N[C@@H](CCCCNC(=O)C=Cc1ccc(Cl)c(Cl)c1)C(=O)N[C@@H](CC(=O)O)C(=O)N[C@@H](Cc1ccccc1)C(N)=O [Example 15, t-BOC-Trp-Lys(ε-N-(3,4-dichlorocinnamoyl))-Asp-PheNH2] (Boc-WK(X11)DF-NH2)	65 nM
CC(C)(C)OC(=O)N[C@@H](Cc1c[nH]c2ccccc12)C(=O)N[C@@H](CCCCNC(=O)CCc1ccc(O)cc1)C(=O)N[C@@H](CC(=O)O)C(=O)N[C@@H](Cc1ccccc1)C(N)=O [Example 1, t-BOC-Trp-Lys(ε-N-(3-(4-hydroxyphenyl)propionyl))-Asp-PheNH2] (Boc-WK(Desaminotyrosyl)DF-NH2)	124 nM
CC(C)(C)OC(=O)N[C@@H](Cc1c[nH]c2ccccc12)C(=O)N[C@@H](CCCCNC(=O)Nc1ccccc1Br)C(=O)N[C@@H](CC(=O)O)C(=O)N[C@@H](Cc1ccccc1)C(N)=O [Example 36, t-BOC-Trp-Lys(ε-N-(2-bromophenyl)aminocarbonyl)-Asp-PheNH2] (Boc-WK([CO-X19])DF-NH2)	7 nM
CC(C)(C)OC(=O)N[C@@H](Cc1c[nH]c2ccccc12)C(=O)N[C@@H](CCCCNC(=O)C=Cc1cccc(O)c1)C(=O)N[C@@H](CC(=O)O)C(=O)N[C@@H](Cc1ccccc1)C(N)=O [Example 5, t-BOC-Trp-Lys(ε-N-(3-hydroxycinnamoyl))-Asp-PheNH2] (Boc-WK(X21)DF-NH2)	37 nM
Cc1ccc(/C=C/C(=O)NCCCC[C@H](NC(=O)[C@H](Cc2c[nH]c3ccccc23)NC(=O)OC(C)(C)C)C(=O)N[C@@H](CC(=O)O)C(=O)N[C@@H](Cc2ccccc2)C(N)=O)cc1 [Example 6, t-BOC-Trp-Lys(ε-N-(4-methylcinnamoyl))-Asp-PheNH2] (Boc-WK(X7)DF-NH2)	71 nM
CC(C)(C)OC(=O)N[C@@H](Cc1c[nH]c2ccccc12)C(=O)N[C@@H](CCCCNC(=O)C=Cc1ccc(O)c(O)c1)C(=O)N[C@@H](CC(=O)O)C(=O)N[C@@H](Cc1ccccc1)C(N)=O [Example 14, t-BOC-Trp-Lys(ε-N-(3,4-dihydroxycinnamoyl))-Asp-PheNH2] (Boc-WK(X8)DF-NH2)	33 nM
CN(C(=O)[C@H](CC(=O)O)NC(=O)[C@H](CCCCNC(=O)/C=C/c1ccc(Cl)cc1)NC(=O)[C@H](Cc1c[nH]c2ccccc12)NC(=O)OC(C)(C)C)[C@@H](Cc1ccccc1)C(N)=O [Example 18, t-BOC-Trp-Lys(ε-N-(4-chlorocinnamoyl))-Asp-(NMe)PheNH2] (Boc-WK(X18)D[NMeF]-NH2)	22 nM
CC(C)(C)OC(=O)N[C@@H](Cc1c[nH]c2ccccc12)C(=O)N[C@@H](CCCCNC(=O)C=Cc1ccc(F)cc1)C(=O)N[C@@H](CC(=O)O)C(=O)N[C@@H](Cc1ccccc1)C(N)=O [Example 7, t-BOC-Trp-Lys(ε-N-(4-fluorocinnamoyl))-Asp-PheNH2] (Boc-WK(X13)DF-NH2)	65 nM
Cc1ccccc1NC(=O)NCCCC[C@H](NC(=O)[C@H](Cc1c[nH]c2ccccc12)NC(=O)OC(C)(C)C)C(=O)N(C)[C@@H](CC(=O)O)C(=O)N[C@@H](Cc1ccccc1)C(N)=O [Example 60, t-BOC-Trp-Lys(ε-N-(2-methylphenyl)aminocarbonyl)-(NMe)Asp-PheNH2] (Boc-WK([CO-NH(2-Me-phenyl)])[NMeD]F-NH2)	4.3 nM
Cc1ccccc1/N=C(/S)NCCCC[C@H](NC(=O)[C@H](Cc1c[nH]c2ccccc12)NC(=O)OC(C)(C)C)C(=O)N[C@@H](CC(=O)O)C(=O)N[C@@H](Cc1ccccc1)C(N)=O [Example 38, t-BOC-Trp-Lys(ε-N-(2-methylphenyl)aminothiocarbonyl)-Asp-PheNH2]	230 nM
CC(C)(C)OC(=O)N[C@@H](Cc1c[nH]c2ccccc12)C(=O)N[C@@H](CCCCNC(=O)Nc1ccccc1[N+](=O)[O-])C(=O)N[C@@H](CC(=O)O)C(=O)N[C@@H](Cc1ccccc1)C(N)=O [Example 34, t-BOC-Trp-Lys(ε-N-(2-nitrophenyl)aminocarbonyl)-Asp-PheNH2] (Boc-WK([CO-X14])DF-NH2)	23 nM

same assay, conditions: guinea pig pancreatic membranes, 37° C., 150 min; read-out: IC50 (nM) 125I-BH-CCK-8 Type-A receptor

Structure (SMILES)	IC50
COc1ccccc1NC(=O)NCCCC[C@H](NC(=O)[C@H](Cc1c[nH]c2ccccc12)NC(=O)OC(C)(C)C)C(=O)N[C@@H](CC(=O)O)C(=O)N[C@@H](Cc1ccccc1)C(N)=O [Example 43, t-BOC-Trp-Lys(ε-N-(2-methoxyphenyl)aminocarbonyl)-Asp-PheNH2] (Boc-WK([CO-X16])DF-NH2)	23 nM
CN(C(=O)[C@H](CC(=O)O)NC(=O)[C@H](CCCCNC(=O)C=Cc1ccc(O)cc1)NC(=O)[C@H](Cc1c[nH]c2ccccc12)NC(=O)OC(C)(C)C)[C@@H](Cc1ccccc1)C(N)=O [Example 17, t-BOC-Trp-Lys(ε-N-(4-hydroxycinnamoyl))-Asp-(NMe)PheNH2] (Boc-WK(X1)D[NMeF]-NH2)	7 nM

target: T2, Type-B CCK receptor (Cavia porcellus, UniProt H0VZC5); test: Radioligand binding of [125I]BH-CCK-8 in guinea pig cerebral cortical membrane preparations; settings: not given
T2 construct: Cortical and pancreatic membranes were prepared as described; from tissue; host or cells: guinea pig cerebral cortex membranes
T2 sequence (H0VZC5 1-426): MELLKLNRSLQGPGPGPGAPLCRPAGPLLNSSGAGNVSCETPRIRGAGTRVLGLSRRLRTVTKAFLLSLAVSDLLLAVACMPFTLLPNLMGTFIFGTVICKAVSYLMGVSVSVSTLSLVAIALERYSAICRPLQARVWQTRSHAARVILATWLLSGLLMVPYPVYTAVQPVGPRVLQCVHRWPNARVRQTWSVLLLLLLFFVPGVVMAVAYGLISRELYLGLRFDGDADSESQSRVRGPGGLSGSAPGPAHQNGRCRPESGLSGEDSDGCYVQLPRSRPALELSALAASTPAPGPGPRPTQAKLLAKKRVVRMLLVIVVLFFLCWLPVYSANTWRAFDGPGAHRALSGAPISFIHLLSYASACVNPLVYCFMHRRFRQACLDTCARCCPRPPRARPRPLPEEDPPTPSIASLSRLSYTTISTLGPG
Description: as §1, §2, §3, §4

Structure (SMILES)	IC50
COC(=O)c1ccccc1NC(=O)NCCCC[C@H](NC(=O)[C@H](Cc1c[nH]c2ccccc12)NC(=O)OC(C)(C)C)C(=O)N[C@@H](CC(=O)O)C(=O)N[C@@H](Cc1ccccc1)C(N)=O [Example 45, t-BOC-Trp-Lys(ε-N-(2-(methoxycarbonyl)phenyl)aminocarbonyl)-Asp-PheNH2] (Boc-WK([CO-2Abz-OMe])DF-NH2)	3000 nM

same assay, conditions: guinea pig cortical membranes, 30° C., 150 minutes; read-out: IC50 (nM) 125I-BH-CCK-8 Type-B receptor

Structure (SMILES)	IC50
CC(C)(C)OC(=O)N[C@@H](Cc1c[nH]c2ccccc12)C(=O)N[C@@H](CCCCNC(=O)Nc1ccccc1)C(=O)N[C@@H](CC(=O)O)C(=O)N[C@@H](Cc1ccccc1)C(N)=O [Example 29, t-BOC-Trp-Lys(ε-N-(phenylaminocarbonyl))-Asp-PheNH2] (Boc-WK([CO-NHPh])DF-NH2)	1100 nM
CC(C)(C)OC(=O)N[C@@H](Cc1c[nH]c2ccccc12)C(=O)N[C@@H](CCCC/N=C(\S)Nc1ccccc1Cl)C(=O)N[C@@H](CC(=O)O)C(=O)N[C@@H](Cc1ccccc1)C(N)=O [Example 37, t-BOC-Trp-Lys(ε-N-(2-chlorophenyl)aminothiocarbonyl)-Asp-PheNH2]	2900 nM
CC(C)(C)NC(=O)NCCCC[C@H](NC(=O)[C@H](Cc1c[nH]c2ccccc12)NC(=O)OC(C)(C)C)C(=O)N[C@@H](CC(=O)O)C(=O)N[C@@H](Cc1ccccc1)C(N)=O [Example 32, t-BOC-Trp-Lys(ε-N-(t-butylaminocarbonyl))-Asp-PheNH2] (Boc-WK([CO-NHtBu])DF-NH2)	5600 nM
CN(C(=O)[C@H](CC(=O)O)NC(=O)[C@H](CCCCNC(=O)c1ccc2cc(O)ccc2c1)NC(=O)[C@H](Cc1c[nH]c2ccccc12)NC(=O)OC(C)(C)C)[C@@H](Cc1ccccc1)C(N)=O [Example 19, t-BOC-Trp-Lys(ε-N-(6-hydroxy-β-naphthoyl))-Asp-(NMe)PheNH2] (Boc-WK(2Naphthoyl(6-OH))D[NMeF]-NH2)	730 nM
CC(C)c1ccccc1NC(=O)NCCCC[C@H](NC(=O)[C@H](Cc1c[nH]c2ccccc12)NC(=O)OC(C)(C)C)C(=O)N[C@@H](CC(=O)O)C(=O)N[C@@H](Cc1ccccc1)C(N)=O [Example 41, t-BOC-Trp-Lys(ε-N-(2-isopropylphenyl)aminocarbonyl)-Asp-PheNH2] (Boc-WK([CO-X24])DF-NH2)	5700 nM
